Results from paper PMC9243654 (Frontiers in Nutrition, 2022).
Where two headings read alike, the source gives them in different places.

Tests used:
[1] = ref PubChem database, cited from earlier work
in vitro = conditions: for PAMPA-BBB log Pe (cm s−1): pH 7.4
Procedure: The PAMPA-BBB assay was conducted according to the methodology followed by Di et al., with some modifications as described below ([15]). First, the BBB solution was prepared by dissolving 8 mg of PBL and 4 mg of cholesterol in 600 μl of n-dodecane. The initial donor solution was prepared by mixing 1 ml of extract (10 mg ml^−1 in EtOH) with 1 ml of buffer (PBS, pH = 7.4, 10 mM). The filter membrane of the donor plate was carefully coated with 5 μl of BBB solution. The acceptor plate was filled with 350 μl of buffer, and the donor plate was carefully assembled over the acceptor plate like a “sandwich.” Finally, the donor plate was filled with 350 μl of donor solution, covered, and incubated for 4 h at 37°C in the dark. After incubation time, 300 μl of the solution was taken from both plates, transferred to separate vials, and dried in the SpeedVac system at 40°C and 13 mbar pressure. Dried acceptor and donor solution were dissolved in 50 μl of pure EtOH before subjecting to UHPLC-Q-TOF-MS analysis. Permeability across in vitro BBB of the bioactive compound was measured according to Equation (1) ([25]), with some modifications in concentration rates.
(1) Pe=-ln[1-CA(t)/Ce]/A^*(1/VD+1/VA)^*t
Cequilibrium was calculated according to the following equation ([2]):
(2) Cequilibrium=[CD(t)*VD+CA(t)*VA]/(VD+VA)

[2] = compounds of RSFE extract, octanol-water partition coefficient
[3] = compounds identified in LPLE extract
[4] = compound within LPLE (Nothofagus pumilio, lenga PLE extract), classes based on Könczöl et al.
[5] = PAMPA, pH 7.4, PAMPA-BBB log Pe (cm s−1)

CC/C=C/CC(O)C(O)/C=C/C(O)CCCCCCCC(=O)O (centres unmarked)
Log P [1, 2]: 2.6
Cross BBB potential (in vitro; PAMPA): +++
PAMPA-BBB log Pe (cm s−1) (in vitro; PAMPA, 4 h): −3.73 cm s−1

COc1ccc(-c2cc(=O)c3c(O)cc(OC)cc3o2)cc1 [4-Methoxytectochrysin]
Log P [1, 2]: 3.3
Cross BBB potential (in vitro; PAMPA): +++
PAMPA-BBB log Pe (cm s−1) (in vitro; PAMPA, 4 h): −4.22 cm s−1

C[C@]12C[C@@H](O)[C@H]3[C@@H](CC[C@]4(O)C[C@@H](O)CC[C@]34CO)[C@@]1(O)CC[C@@H]2c1ccc(=O)oc1 [11α,19-dihydroxytelocinobufagin]
Log P ([1]; compounds of KD extract): 3.63
Cross BBB potential (in vitro; compound within KD extract): -

O=C(O)C[C@H]1CCC(=O)[C@@H]1C/C=C\CCO [12- Hydroxyjasmonic acid]
Log P [1, 2]: 0.4
Cross BBB potential (in vitro; PAMPA): +++
PAMPA-BBB log Pe (cm s−1) (in vitro; PAMPA, 4 h): −4.06 cm s−1

CC(C)c1cc2c(c(O)c1O)[C@@]13CCCC(C)(C)[C@@H]1C[C@@H]2OC3 [20-Deoxocarnosol]
Log P [1, 2]: 4.6
Cross BBB potential (in vitro; compound within RSFE extract): -

O=C(O[C@@H]1Cc2c(O)cc(O)cc2O[C@@H]1c1ccc(O)c(O)c1)c1cc(O)c(O)c(O)c1 [(-)-Epicatechin gallate]
Log P [1, 3]: 1.5
Log P ([1]; compounds of ASFE extract): 1.5
Cross BBB potential (in vitro; compound within ASFE extract): -
Cross BBB potential (in vitro; [4]): -

C[C@@H]1O[C@@H](Oc2c(-c3ccc(O)cc3)oc3cc(O)cc(O)c3c2=O)[C@H](O)[C@H](O)[C@H]1O [Afzelin]
Cross BBB potential (in vitro; PAMPA): -

C=C(C)[C@@H]1CC[C@]2(C(=O)O)CC[C@]3(C)[C@H](CC[C@@H]4[C@@]5(C)CC[C@H](O)[C@@](C)(CO)[C@@H]5CC[C@]43C)[C@@H]12 [Anemosapogenin]
Log P [1, 2]: 7.5
Cross BBB potential (in vitro; PAMPA): ++ (key: -: not detected in acceptor; +: log Pe > −6.5; ++: log Pe > −5.5; +++: log Pe > −4.5)
PAMPA-BBB log Pe (cm s−1) (in vitro; PAMPA): −5.26 cm s−1

O=C1c2c(O)cc(O)cc2O[C@H](c2ccc(O)cc2)[C@H]1O [Aromadendrin]
Log P [1, 3]: 1.8
Log P ([1]; compounds of ASFE extract): 1.8
Cross BBB potential (in vitro; compound within ASFE extract): -
Cross BBB potential (in vitro; [4]): -

CC(C)=CCc1cc(/C=C/C(=O)O)cc(CC=C(C)C)c1O [Artepillin C]
Log P [1, 2]: 5.4
Cross BBB potential (in vitro; PAMPA): +++
PAMPA-BBB log Pe (cm s−1) (in vitro; PAMPA, 4 h): −4.42 cm s−1

C[C@H]1[C@H](C)CC[C@]2(C(=O)O)CC[C@]3(C)C(=CC[C@@H]4[C@@]5(C)C[C@@H](O)[C@H](O)[C@@](C)(CO)[C@@H]5CC[C@]43C)[C@H]12 [Asiatic acid]
Cross BBB potential (in vitro; PAMPA): +++
Papp at 4 h (in vitro; [5]): 64.6 ×10⁻⁶ cm/s

CC(=O)O[C@H]1C[C@@H](O)[C@]2(C=O)[C@H]3CC[C@]4(C)[C@@H](c5ccc(=O)oc5)CC[C@]4(O)[C@@H]3CC[C@]2(O)C1 [Bersaldegenin-3-acetate]
Log P ([1]; compounds of KD extract): 1.3
Cross BBB potential (in vitro; compound within KD extract): -

C[C@]12CC[C@H]3[C@@H](CC[C@]4(O)C[C@@H](O)C[C@@H](O)[C@]34C=O)[C@@]1(O)CC[C@@H]2c1ccc(=O)oc1 [Bersaldegenin]
Log P ([1]; compounds of KD extract): 0.2
Cross BBB potential (in vitro; compound within KD extract): -

C=C(C)[C@@H]1CC[C@]2(C(=O)O)CC[C@]3(C)[C@H](CC[C@@H]4[C@@]5(C)CC[C@H](O)C(C)(C)[C@@H]5CC[C@]43C)[C@@H]12 [Betulinic acid]
Log P [1, 2]: 8.2
Cross BBB potential (in vitro; PAMPA): +
Papp at 4 h (in vitro; [5]): 0.229 ×10⁻⁶ cm/s

C[C@@]12O[C@H]3C[C@@H](O1)[C@]1(C=O)[C@H]4[C@H](O)C[C@]5(C)[C@@H](c6ccc(=O)oc6)CC[C@]5(O)[C@@H]4CC[C@@]1(C3)O2 [Bryophyllin A]
Log P ([1]; compounds of KD extract): 0.6
Cross BBB potential (in vitro; compound within KD extract): -

CC(=O)O[C@@H]1C[C@H](O)C[C@@]2(O)CC[C@@H]3[C@@H]4[C@@H](C[C@]5(C)[C@@H](c6ccc(=O)oc6)CC[C@]35O)O[C@H](O)[C@]412 [Bryophyllin B]
Log P ([1]; compounds of KD extract): 0.6
Cross BBB potential (in vitro; compound within KD extract): -

O=C(/C=C/c1ccc(O)c(O)c1)c1ccc(O)cc1O [Butein]
Log P [1, 3]: 2.8
Log P ([1]; compounds of ASFE extract): 2.8
Papp at 4 h (in vitro; PAMPA, pH 7.4, PAMPA-BBB log Pe (cm s−1), compound within ASFE extract, 4 h, 37°C, PBS pH 7.4): 2.19 ×10⁻⁶ cm/s
Papp at 4 h (in vitro; PAMPA, pH 7.4, PAMPA-BBB log Pe, compound within LPLE (Nothofagus pumilio, lenga PLE extract), N.D = not detected in acceptor): 16.6 ×10⁻⁶ cm/s
Cross BBB potential (in vitro; compound within ASFE extract): + (log Pe > −6.5)
Cross BBB potential (in vitro; [4]): ++ (log Pe > −5.5)

O=C(O)/C=C/c1ccc(O)c(O)c1 [Caffeic acid]
Cross BBB potential (in vitro; PAMPA): -

O=C(/C=C/c1ccc(O)c(O)c1)O[C@@H]1C[C@](O)(C(=O)O)C[C@@H](O)[C@H]1O [Caffeoylquinic acid (chlorogenic acid), Caffeoylquinic acid]
Papp at 4 h (in vitro; [5]): 10.2 ×10⁻⁶ cm/s

O=C(/C=C/c1ccc(O)c(O)c1)O[C@@H](C(=O)O)[C@@H](O)C(=O)O [Caftaric acid]
Log P ([1]; compounds of ASFE extract): 0.1
Cross BBB potential (in vitro; PAMPA): -

CC(C)c1cc2c(c(O)c1O)[C@@]1(C(=O)O)CCCC(C)(C)[C@@H]1CC2 [Carnosic acid]
Cross BBB potential (in vitro; PAMPA): ++ (key: -: not detected in acceptor; +: log Pe > −6.5; ++: log Pe > −5.5; +++: log Pe > −4.5)
Papp (in vitro; [5]): 13.5 ×10⁻⁶ cm/s
